Measured values from patent US20120004282A1, “RNA Interference Mediated Inhibition of the Intercellular Adhesion Molecule 1 (ICAM-1) Gene Expression Using Short Interfering Nucleic Acid (siNA)” (Merck Sharp & Dohme Corp,, priority 2009, published 2012).
[invAb] = inverted abasic unit; d = 2'-deoxy (DNA); m = 2'-O-methyl; r = 2'-OH (RNA); f = 2'-fluoro

Tested on: ICAM-1 mRNA
Assay: ICAM-1 mRNA knock-down in transfected Calu-1 cells (Taqman RT-PCR)
Type: cell-based, human
Settings: Calu-1 cells, 10 nM siNA, 24 hrs post-transfection, mean ± S.D., relative to non-targeting control
Procedure: Calu-1 (human; ATCC cat# HTB-54): Cells were cultured at 37° C. in the presence of 5% CO2 and grown in McCoy's 5a medium supplemented with fetal bovine serum at a final concentration of 10% and 100 μg/mL of streptomycin and 100 U/mL penicillin.
All transfections were performed using RNAiMax (Invitrogen Cat# 13778-150) as per the manufacturer's instructions.
Calu-1 cells were plated in all wells of a tissue-culture treated, 96-well plate at final counts of 5,000 cells/well in 100 μL of appropriate culture media. Cells were cultured for 24 hours after plating at 37° C. in the presence of 5% CO2.
After 24 hours, complexes containing siNA and RNAiMax were created as follows. A solution of RNAiMax diluted 33-fold in OPTI-MEM was prepared. In parallel, solutions of the siNAs for testing were prepared to a final concentration of 120 nM in OPTI-MEM. After incubation of RNAiMax/OPTI-MEM solution at room temperature for 5 min, an equal volume of the siNA solution and the RNAiMax solution were added together for each of the siNAs. […] This solution was incubated at room temperature for 20 minutes. After incubation, 20 uL of the solution was added to each of the relevant wells. The final concentration of siNA in each well was 10 nM and the final volume of RNAiMax in each well was 0.3 uL.
The time of incubation with the RNAiMax-siNA complexes was 24 hours, unless otherwise indicated. There was no change in media between the transfection and harvesting of the cells unless otherwise indicated.
Dose response curves were carried out in a similar fashion in 96-well plates, while maintaining a constant amount of RNAiMax in each transfection.
RNA was extracted from a 96-well plate using the TaqMan® Gene Expression Cells-to-CT™ Kit (Cat# 4399002) with a modified protocol. Briefly, a 60 uL (1 plate) or 110 uL (2 plates) of the Lysis Solution with DNase I was dispensed into each well of the Lysis Buffer Plate (twin.tec full skirt plate). The lysis buffer and stop plates were stored at 4° C. until the cells were washed.
The plate was spun at 1100 rpm for 5 minutes. The culture medium was aspirated and discarded from the wells of the culture plate. The lysis was performed automatically using a BioMek FX instrument and method. After the Biomek method was completed, the lysis plate was incubated for 2 min. at room temperature. The lysis plate can be stored for 2 hours at 4° C., or at −20° C. or −80° C. for two months.
Each well of the reverse transcription plate required 10 uL of 2× reverse transcriptase Buffer, 1 uL of 20× reverse transcription enzyme and 2 uL of nuclease-free water. The reverse transcription master mix was prepared by mixing 2× reverse transcription buffer, 20× reverse transcription enzyme mix, and nuclease-free water. 13 uL of the reverse transcription master mix was dispensed into each well of the reverse transcription plate (semi-skirted). A separate reverse transcription plate was prepared for each cell plate. The plate was loaded onto a Biomek NX or Biomek FX Dual-96 and the Biomek method was run. The program is programmed to automatically added 7 uL of lysate from the cell lysis procedure described above into each well of the reverse transcription plate. The plate is sealed and spun on a centrifuge (1000 rpm for 30 seconds) to settle the contents to the bottom of the reverse transcription plate. The plate is placed in a thermocycler at 37° C. for 60 min, 95° C. for 5 min, and 4° C. until the plate is removed from the thermocycler. Upon removal, if not used immediately, the plate was frozen at −20° C.
A series of probes and primers were used to detect the various mRNA transcripts of the genes of ICAM-1 and ICAM-2 in human cell lines (see Table 2). All the Taqman probes and primers for the experiments here-in described were supplied as pre-validated sets by Applied Biosystems, Inc., (see Table 2). The assays were performed on an ABI 7900 instrument, according to the manufacturer's instructions. […]

| Substance | % KD Human |
| --- | --- |
| 48717-DC: siNA duplex, ICAM-1 target site 911 (m); sense B GGuGAcuGAGGAGuucGAc TTB; antisense GUCGAAcuccucAGucAccUU (sense GGUGACUGAGGAGUUCGACTT; antisense GUCGAACUCCUCAGUCACCUU; sense: DNA at AGT, 2'-fluoro at CU, [invAb] at 5' end, 3' end, backbone not given here; antisense: sugars from the 5' end rrrmmmffffffmmffmffmm, backbone not given here) | −9 ± 17% |
| 48718-DC: siNA duplex, ICAM-1 target site 1938 (h); sense B cucuuccucGGccuucccA TTB; antisense UGGGAAGGccGAGGAAGAGUU (sense CUCUUCCUCGGCCUUCCCATT; antisense UGGGAAGGCCGAGGAAGAGUU; sense: sugars from the 5' end f9 d2 f7 d3, [invAb] at 5' end, 3' end, backbone not given here; antisense: sugars from the 5' end r4 m4 f2 m11, backbone not given here) | 19 ± 11% |
| 48719-DC: siNA duplex, ICAM-1 target site 1230 (h); sense B cAGuGAccAucuAcAGcuu TTB; antisense AAGcuGuAGAuGGucAcuGUU (sense CAGUGACCAUCUACAGCUUTT; antisense AAGCUGUAGAUGGUCACUGUU; sense: DNA at AGT, 2'-fluoro at CU, [invAb] at 5' end, 3' end, backbone not given here; antisense: sugars from the 5' end rrrffmfmmmfmmffmffmmm, backbone not given here) | 71 ± 9% |
| 48720-DC: siNA duplex, ICAM-1 target site 1609 (h); sense B GuGucuAAAGGAuGGcAcu TTB; antisense AGUGccAuccuuuAGAcAcUU (sense GUGUCUAAAGGAUGGCACUTT; antisense AGUGCCAUCCUUUAGACACUU; sense: DNA at AGT, 2'-fluoro at CU, [invAb] at 5' end, 3' end, backbone not given here; antisense: sugars from the 5' end rrrmffmffffffmmmfmfmm, backbone not given here) | 48 ± 20% |
| 48721-DC: siNA duplex, ICAM-1 target site 523 (h); sense B GuuGcuccuGccuGGGAAc TTB; antisense GUUcccAGGcAGGAGcAAcUU (sense GUUGCUCCUGCCUGGGAACTT; antisense GUUCCCAGGCAGGAGCAACUU; sense: DNA at AGT, 2'-fluoro at CU, [invAb] at 5' end, 3' end, backbone not given here; antisense: sugars from the 5' end rrrfffmmmfmmmmmfmmfmm, backbone not given here) | 56 ± 16% |
| 48723-DC: siNA duplex, ICAM-1 target site 390 (h); sense B cuGGcAAuGcccAGAcAuc TTB; antisense GAUGucuGGGcAuuGccAGUU (sense CUGGCAAUGCCCAGACAUCTT; antisense GAUGUCUGGGCAUUGCCAGUU; sense: DNA at AGT, 2'-fluoro at CU, [invAb] at 5' end, 3' end, backbone not given here; antisense: sugars from the 5' end rrrmfffmmmfmffmffmmmm, backbone not given here) | 68 ± 12% |
| 48724-DC: siNA duplex, ICAM-1 target site 560 (h); sense B cuGAGcAAuGuGcAAGAAG TTB; antisense CUUcuuGcAcAuuGcucAcUU (sense CUGAGCAAUGUGCAAGAAGTT; antisense CUUCUUGCACAUUGCUCACUU; sense: DNA at AGT, 2'-fluoro at CU, [invAb] at 5' end, 3' end, backbone not given here; antisense: sugars from the 5' end rrrfffmfmfmffmfffmfmm, backbone not given here) | 34 ± 8% |
| 48725-DC: siNA duplex, ICAM-1 target site 1143 (h); sense B cAGucAGuGuGAccGcAGA TTB; antisense UCUGcGGucAcAcuGAcuGUU (sense CAGUCAGUGUGACCGCAGATT; antisense UCUGCGGUCACACUGACUGUU; sense: DNA at AGT, 2'-fluoro at CU, [invAb] at 5' end, 3' end, backbone not given here; antisense: sugars from the 5' end rrrmfmmffmfmffmmffmmm, backbone not given here) | 53 ± 19% |
| 48726-DC: siNA duplex, ICAM-1 target site 1217 (h); sense B GAGAcAcuGcAGAcAGuGA TTB; antisense UCAcuGucuGcAGuGucucUU (sense GAGACACUGCAGACAGUGATT; antisense UCACUGUCUGCAGUGUCUCUU; sense: DNA at AGT, 2'-fluoro at CU, [invAb] at 5' end, 3' end, backbone not given here; antisense: sugars from the 5' end rrrffmfffmfmmfmffffmm, backbone not given here) | 64 ± 16% |
| 48727-DC: siNA duplex, ICAM-1 target site 1521 (h); sense B GGGAuuGuccGGGAAAcuG TTB; antisense CAGuuucccGGAcAAucccUU (sense GGGAUUGUCCGGGAAACUGTT; antisense CAGUUUCCCGGACAAUCCCUU; sense: DNA at AGT, 2'-fluoro at CU, [invAb] at 5' end, 3' end, backbone not given here; antisense: sugars from the 5' end rrrffffffmmmfmmffffmm, backbone not given here) | 23 ± 6% |
